What was measured:
[1] = biological target: BTK-Fas association in NALM-6-UM1 cells (Homo sapiens, UniProt Q06187); experiment: BTK-Fas association, Western blot of BTK immune complexes; format: cell-based; conditions: 10 μM x 4 hours
Procedure: FIGS. 6A-6D: Apoptotic Responses of Human B-lineage Leukemia Cells to Fas Ligation in Relationship to BTK Expression and Function. Anti-BTK and anti-Actin dual-antibody Western blot analysis of whole cell lysates from BTK-positive NALM-6-UM1 (N6-U1) and BTK-deficient RAMOS-1 cells (FIG. 5A). Anti-Fas Western blot analysis of the same cell lysates. [B] Cells were harvested 24 hours after exposure to anti-Fas antibody at 0.1 μg/ml or 1.0 μg/ml concentrations and DNA from Triton-X-100 lysates was analyzed for fragmentation, as described by Uckun, F. M., et al. (1996) Science 273, 1096-1100; and Uckun, F. M., et al. (1995) Science 267, 886-91. […] [C.1] and [C.2] Anti-BTK and anti-Fas Western blot analysis of whole cell lysates from N6-U1 cells treated with the BTK inhibitor LMA-13 (10 μM×4 hours). [C.3] Anti-Fas and Anti-BTK Western blot analysis of anti-BTK antibody immunoprecipitated BTK immune complexes from untreated (=−Inhibitor) and LMA-13-treated (10 μM×4 hours) (=+Inhibitor) N6-U1 cells. [D]. N6-U1 cells were harvested 24 hours after exposure to anti-Fas antibody at 0.1 μg/ml or 1.0 μg/ml concentrations and DNA from Triton-X-100 lysates was analyzed for fragmentation, as described by Uckun, F. M., et al. (1996) Science 273, 1096-1100; and Uckun, F. M., et al. (1995) Science 267, 886-91. […]

[2] = biological target: T1, Insulin-Receptor Kinase (IRK) (Homo sapiens, UniProt P06213); experiment: Cell-free tyrosine kinase inhibition assay IRK from HepG2 cells; format: biochemical
T1 construct: IRK was immunoprecipitated from the lysates with an anti-IRb antibody

[3] = system: OVA-sensitized and challenged mice; experiment: Airway responsiveness to methacholine in mouse model of allergic asthma; format: in vivo; conditions: ovalbumin sensitized and challenged, N = 5-6 mice
Procedure: FIG. 28: Inhibition of airway hyperresponsiveness by LFM-A8 in mice. Mice were sensitized with ovalbumin (OVA) on days 0 and 14 intraperitoneally. On days 20, 21 and 23, mice were challenged for 15 min with 2% OVA via airways using a untrasonic nebulizer. After 24 h of the last OVA challenge airway responsiveness to increasing concentrations of methacholine was measured. To study the effect of LFM-A8 on airway hyperresponsiveness, mice were injected intraperitoneally with indicated concentrations of LFM-A8 or vehicle on day 20, 21, and 23 1 h prior and 2 h post OVA challenge and airway responsiveness to increasing concentrations of methacholine was measured. The data points represent the mean±SEM values (N=5-6 mice).
Mouse Model of Allergic Asthma. BALB/c mice were injected intraperitoneally with 20 μg of ovalbumin (OVA) in alum on day 0, and 14. On days 21, 22 and 23 the mice were challenged for 15 min with 2% OVA via their airways by ultrasonic nebulization (Takeda, K., et al., (1997) J Exp Med, 186, 449-454). In order to study the effect of LFM-A8 on allergic asthma, mice were treated with LFM-A8 or vehicle 2 h prior to OVA challenge on day 21, 22 and 23. Mice were assessed for “airway responsiveness” on day 24, as previously reported (Takeda, K., et al., (1997) J Exp Med, 186, 449-454; Hamelmann, E., et al., (1997) Am J Respir Crit Care Med, 156, 766-775) and described below.
Determination of Airway Responsiveness. Airway responsiveness was measured in unrestrained mice by noninvasive whole body plethysmography using a BUXCO BioSystem plethysmography instrument (BUXCO, Trou, N.Y.) (Hamelmann, E., et al., (1997) Am J Respir Crit Care Med, 156, 766-775). The chamber pressure was measured with a transducer connected to a preamplifier module and analyzed by system XA software) (Hamelmann, E., et al., (1997) Am J Respir Crit Care Med, 156, 766-775). The chamber pressure was used as a measure of the difference between thoracic volume expansion or contraction and air volume removed or added to the chamber during breathing. The differential of this function with respect to time produced a pseudo-flow value that is proportionate to the difference between the rate of the thoracic volume expansion and nasal air flow. The pulmonary airflow obstruction assessed by measuring “Enhanced Pause (Penh)” using the following formula according to the manufacturer's recommendations: Penh=PEP/PIP×Pause. […] In order to measure the methacholine responses, mice were placed in the chamber and baseline readings were taken and averaged for 3 min. Mice were nebulized with saline or methacholine at increasing doses (1-100 mg/ml) for 3 min and the Penh readings were taken and averaged for 3 min after each nebulization. […]

T1 sequence (P06213 28-1382): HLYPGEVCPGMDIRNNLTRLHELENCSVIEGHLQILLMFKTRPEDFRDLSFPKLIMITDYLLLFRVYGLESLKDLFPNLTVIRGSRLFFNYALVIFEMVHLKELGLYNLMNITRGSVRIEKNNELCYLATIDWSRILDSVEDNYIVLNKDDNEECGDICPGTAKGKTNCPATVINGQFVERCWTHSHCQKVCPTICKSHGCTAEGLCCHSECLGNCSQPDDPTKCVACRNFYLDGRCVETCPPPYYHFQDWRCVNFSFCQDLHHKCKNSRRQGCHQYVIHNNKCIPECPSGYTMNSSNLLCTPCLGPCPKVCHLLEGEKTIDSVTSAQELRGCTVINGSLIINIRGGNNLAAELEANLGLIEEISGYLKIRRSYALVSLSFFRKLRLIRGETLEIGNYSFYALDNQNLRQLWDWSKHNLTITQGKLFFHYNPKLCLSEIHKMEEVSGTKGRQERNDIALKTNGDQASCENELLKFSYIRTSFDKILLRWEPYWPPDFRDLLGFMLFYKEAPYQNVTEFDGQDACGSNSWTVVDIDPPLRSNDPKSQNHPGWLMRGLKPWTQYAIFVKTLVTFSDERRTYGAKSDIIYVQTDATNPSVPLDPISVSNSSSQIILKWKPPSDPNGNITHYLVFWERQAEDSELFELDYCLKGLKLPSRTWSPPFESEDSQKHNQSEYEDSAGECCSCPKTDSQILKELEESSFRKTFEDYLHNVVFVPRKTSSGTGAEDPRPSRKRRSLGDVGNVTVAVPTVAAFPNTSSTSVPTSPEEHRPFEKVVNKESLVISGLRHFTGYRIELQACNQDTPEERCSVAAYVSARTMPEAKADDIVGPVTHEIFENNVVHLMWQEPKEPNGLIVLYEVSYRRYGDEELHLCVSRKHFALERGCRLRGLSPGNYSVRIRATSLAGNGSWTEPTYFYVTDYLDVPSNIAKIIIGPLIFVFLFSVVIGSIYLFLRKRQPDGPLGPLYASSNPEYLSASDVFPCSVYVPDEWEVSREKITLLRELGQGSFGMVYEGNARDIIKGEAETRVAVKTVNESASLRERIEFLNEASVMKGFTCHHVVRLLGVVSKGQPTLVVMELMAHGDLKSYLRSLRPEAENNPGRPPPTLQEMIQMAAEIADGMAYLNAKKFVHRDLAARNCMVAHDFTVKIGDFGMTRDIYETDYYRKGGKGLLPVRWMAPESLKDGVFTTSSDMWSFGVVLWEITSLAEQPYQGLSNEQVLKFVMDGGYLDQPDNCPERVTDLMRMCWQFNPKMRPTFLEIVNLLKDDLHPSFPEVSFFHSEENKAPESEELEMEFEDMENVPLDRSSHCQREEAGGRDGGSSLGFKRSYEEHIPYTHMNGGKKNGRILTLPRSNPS
Sequence of BTK-Fas association in NALM-6-UM1 cells (Q06187 2-659): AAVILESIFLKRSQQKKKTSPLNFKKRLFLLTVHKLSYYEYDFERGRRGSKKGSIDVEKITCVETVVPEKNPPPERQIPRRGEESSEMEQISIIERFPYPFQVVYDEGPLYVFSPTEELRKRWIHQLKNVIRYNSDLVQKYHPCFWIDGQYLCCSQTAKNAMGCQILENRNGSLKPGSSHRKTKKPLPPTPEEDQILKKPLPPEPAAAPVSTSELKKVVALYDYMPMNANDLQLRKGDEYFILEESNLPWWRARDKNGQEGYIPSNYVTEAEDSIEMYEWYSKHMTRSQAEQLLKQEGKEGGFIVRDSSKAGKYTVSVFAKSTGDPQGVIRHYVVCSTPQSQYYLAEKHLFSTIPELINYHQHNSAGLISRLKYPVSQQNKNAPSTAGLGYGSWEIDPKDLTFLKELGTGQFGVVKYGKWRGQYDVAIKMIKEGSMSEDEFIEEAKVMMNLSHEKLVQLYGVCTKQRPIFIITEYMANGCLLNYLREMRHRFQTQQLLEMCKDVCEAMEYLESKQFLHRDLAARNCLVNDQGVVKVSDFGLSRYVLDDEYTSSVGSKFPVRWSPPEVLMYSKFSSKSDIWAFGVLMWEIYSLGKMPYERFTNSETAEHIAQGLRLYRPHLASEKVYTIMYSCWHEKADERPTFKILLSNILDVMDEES

Row | SMILES | BTK-Fas association [1] | IC50 ([2]; IRK) [µM] | effect on enzymatic activity of IRK ([2]; concentrations as high as 100 μg/ml (~278 μM)) | Requirement of Methacholine for an Increase in Penh of 100% ([3]; 15 mg/Kg intraperitoneally) [mg/mL] | Requirement of Methacholine for an Increase in Penh of 200% ([3]; 15 mg/Kg intraperitoneally) [mg/mL] | Requirement of Methacholine for an Increase in Penh of 100% ([3]; 50 mg/Kg intraperitoneally) [mg/mL] | Requirement of Methacholine for an Increase in Penh of 200% ([3]; 50 mg/Kg intraperitoneally) [mg/mL]
1 | C/C(O)=C(\C#N)C(=O)Nc1cc(Br)ccc1Br [LFM-A13, α-Cyano-β-hydroxy-β-methyl-N-(2,5-dibromophenyl)-propenamide] | abrogates the BTK-Fas association | > 278 | did not affect the enzymatic activity |  |  |  | 
2 | CC(O)=C(C#N)C(=O)Nc1cccc(C(F)(F)F)c1 [LFM-A8, α-Cyano-β-hydroxy-β-methyl-N-[3-(trifluoromethyl)phenyl]-propenamide] |  |  |  | 36.8 | 82 | 67.5 | 129

— patent publication US6753348B2, “BTK inhibitors and methods for their identification and use” (Parker Hughes Institute, priority 1998, dated 2004)
